# Measurements taken from patent US20050143463A1, “Method of inhibiting angiogenesis” (THE QUEEN ELIZABETH HOSPITAL RESEARCH FOUNDATION INC., priority 2002, published 2005).
# Key:
# [1] = tested on: chicken chorioallantoic membrane (CAM); test: Chicken chorioallantoic membrane (CAM) assay for angiogenesis; format: in vivo; conditions: for inhibition of angiogenesis in the CAM assay, dose dependent (in words): dose dependent manner; for Vein length (%) / Artery length (%) / CAM Increase (%) / Total vessel length (%) / Vein Diameter (%): % of control, Mean ± SEM; for cytotoxicity to the embryo: chicken embryo, CAM assay; for effect of the lowest dose on vein length, artery length, total vessel length and vein diameter (in words): lowest dose (25 nmol)
# Method: Fertilised chicken eggs (HiChick Breeding Co, Kapunda, South Australia) were incubated for three days at 38° C. On Day 3 the embryos were cracked out of the egg and into a cup made of plastic piping, with plastic film stretched over the top to form a hammock for the egg to be suspended in. Two ml of DMEM containing penicillin and streptomycin was added to each cup prior to the egg being added. A petri dish on the top maintained sterility. Incubation continued in a humidified 37° C. incubator.
# On Day 4 the chorioallantoic membrane (CAM) begins to grow, and pictures were taken of each embryo at ×5 to measure the CAM area using image analysis software (Video Pro 32, Leading Edge Pty Ltd, South Australia).
# Embryos were then grouped according to their CAM area, with a control embryo in each for comparison. Grouping is critical as in these early developmental stages changes in the CAM growth are dramatic. Relatively small differences in size on Day 4 translate to large differences in the CAM on Day 5. Treatment was applied in methylcellulose discs, which were dried under vacuum overnight. The methylcellulose discs were applied to the top of the CAM, and at the beginning of treatment were at least three to four-fold bigger than the CAM area, meaning treatment covered the entire CAM surface.
# On Day 5 skim milk with contrast medium was injected into the CAM. Pictures were then taken at various levels of magnification up to ×63. Quantitative measurements were made from ×5 pictures. CAM area, and vein and artery lengths were measured using image analysis (Video Pro 32, Leading Edge Pty Ltd, South Australia). Relative vessel lengths were then calculated as the total length/CAM area. Statistical analysis was made using SigmaStat and OneWay ANOVA with p<0.05 as the level of significance.
# [2] = tested on: Human umbilical vein endothelial cells (HUVEC); test: HUVEC proliferation assay (tritiated thymidine uptake); format: cell-based; conditions: for HUVEC proliferation (in words) / inhibition at 400 µM: 400 μM concentration; for HUVEC proliferation (in words): tritiated thymidine uptake; for inhibition at 400 µM: percentage of control cells with no added agent (Table 3), read-out: Percentage inhibition of HUVEC proliferation; for inhibition of HUVEC proliferation in vitro, dose dependent (in words): dose dependent manner
# Method: Human umbilical vein endothelial cells (HUVEC) were seeded in 96-well flat bottomed tissue culture plates at a density of 2.5-5×10^4 cells/well and treated with various dilutions of agents. Cells were cultured in RPMI medium containing 20% FCS, Penicillin/Streptomycin in a 5% CO2 atmosphere at 37° C. After 24 to 48 hours of incubation, cells were pulsed with 1 μCi of tritiated thymidine for 6 hours. The pulsed cells were trypsinised to detach from the wells and then harvested in a TOMTEC Cell Harvester onto glass fibre filters, which were dried and immersed in scintillation fluid and counted in a Wallac Microbeta scintillation counter. The results were reported as mean cpm±SD.
# [3] = 25 nmol on methylcellulose disc
# [4] = 50 nmol on methylcellulose disc
# [5] = 100 nmol on methylcellulose disc
molecule,measurement,setting,value
16-methyltetradecanoic acid,"inhibition of angiogenesis in the CAM assay, dose dependent (in words)",[1],inhibit angiogenesis
"CCCCCCCCC(C)CCCCCCCCC(=O)O (stereo not shown) [10-MODA, 10-methyloctadecanoic Acid]",Vein length (%),[1]; [3],88.4 ± 8.8%
same,Artery length (%),[1]; 25 nmol,85.7 ± 6.2%
same,CAM Increase (%),[1]; 25 nmol,101.9 ± 11.2%
same,Total vessel length (%),[1]; 25 nmol,85.7 ± 5.4%
same,Vein Diameter (%),[1]; 25 nmol,82.9 ± 3.0%
same,Vein length (%),[1]; [4],85.8 ± 14.1%
same,Artery length (%),[1]; 50 nmol,94.3 ± 6.3%
same,CAM Increase (%),[1]; 50 nmol,120.2 ± 25.5%
same,Total vessel length (%),[1]; 50 nmol,88.9 ± 7.0%
same,Vein Diameter (%),[1]; 50 nmol,90.2 ± 9.8%
same,number of branching capillaries sprouting from the main vessels,[1]; 100 nmol,reduction
same,vessel area,[1]; 100 nmol,diminished
same,Vein length (%),[1]; [5],70.9 ± 22.5%
same,CAM Increase (%),[1]; 100 nmol,68.2 ± 8.6%
same,Vein Diameter (%),[1]; 100 nmol,76.1 ± 16.2%
same,cytotoxicity to the embryo,[1],not cytotoxic
same,"inhibition of angiogenesis in the CAM assay, dose dependent (in words)",[1],inhibit angiogenesis
same,"effect of the lowest dose on vein length, artery length, total vessel length and vein diameter (in words)",[1],inhibited
CC(C)CCCCCCCCC(=O)O [10-methyl undecanoic acid],HUVEC proliferation (in words),[2],inhibited
same,inhibition at 400 µM,"[2]; Homo sapiens, HUVEC",84%
same,"inhibition of HUVEC proliferation in vitro, dose dependent (in words)",[2],inhibit the proliferation
CC(C)CCCCCCCCCC(=O)O [11-methyl dodecanoic acid],HUVEC proliferation (in words),[2],inhibited
same,inhibition at 400 µM,"[2]; Homo sapiens, HUVEC",83%
same,"inhibition of HUVEC proliferation in vitro, dose dependent (in words)",[2],inhibit the proliferation
CCC(C)CCCCCCCCCC(=O)O (stereo not shown) [11-methyl tridecanoic acid],HUVEC proliferation (in words),[2],inhibited
same,inhibition at 400 µM,"[2]; Homo sapiens, HUVEC",42%
same,"inhibition of HUVEC proliferation in vitro, dose dependent (in words)",[2],inhibit the proliferation
CC(C)CCCCCCCCCCC(=O)O [12-methyl tridecanoic acid],HUVEC proliferation (in words),[2],inhibited
same,inhibition at 400 µM,"[2]; Homo sapiens, HUVEC",35%
same,"inhibition of HUVEC proliferation in vitro, dose dependent (in words)",[2],inhibit the proliferation
"CC(C)CCCCCCCCCCCC(=O)O [13-MTA, 13-methyltetradecanoic Acid]",HUVEC proliferation (in words),[2],inhibited
same,inhibition at 400 µM,"[2]; Homo sapiens, HUVEC",19%
same,"inhibition of HUVEC proliferation in vitro, dose dependent (in words)",[2],inhibit the proliferation
same,number of branching capillaries sprouting from the main vessels,[1]; 100 nmol,reduction
same,vessel area,[1]; 100 nmol,diminished
same,cytotoxicity to the embryo,[1],not cytotoxic
same,"inhibition of angiogenesis in the CAM assay, dose dependent (in words)",[1],inhibit angiogenesis
same,"effect of the lowest dose on vein length, artery length, total vessel length and vein diameter (in words)",[1],inhibited
CCC(C)CCCCCCCCCCCC(=O)O (stereo not shown) [13-methyl pentadecanoic acid],HUVEC proliferation (in words),[2],inhibited
same,inhibition at 400 µM,"[2]; Homo sapiens, HUVEC",21%
same,"inhibition of HUVEC proliferation in vitro, dose dependent (in words)",[2],inhibit the proliferation
"CC(C)CCCCCCCCCCCCC(=O)O [14-MPDA, 14-methylpentadecanoic Acid]",HUVEC proliferation (in words),[2],inhibited
same,inhibition at 400 µM,"[2]; Homo sapiens, HUVEC",7%
same,"inhibition of HUVEC proliferation in vitro, dose dependent (in words)",[2],inhibit the proliferation
same,Vein length (%),[1]; [3],89.6 ± 10.1%
same,Artery length (%),[1]; 25 nmol,81.3 ± 11.4%
same,Total vessel length (%),[1]; 25 nmol,84.7 ± 8.7%
same,Vein Diameter (%),[1]; 25 nmol,90.8 ± 9.2%
same,Vein length (%),[1]; [4],80.9 ± 14.3%
same,Artery length (%),[1]; 50 nmol,81.4 ± 11.7%
same,Total vessel length (%),[1]; 50 nmol,80.9 ± 12.3%
same,Vein Diameter (%),[1]; 50 nmol,81.8 ± 14.1%
same,number of branching capillaries sprouting from the main vessels,[1]; 100 nmol,reduction
same,vessel area,[1]; 100 nmol,diminished
same,Vein length (%),[1]; [5],63.3 ± 5.1^1%
same,Artery length (%),[1]; 100 nmol,83.5 ± 9.3%
same,Total vessel length (%),[1]; 100 nmol,74.0 ± 6.6%
same,Vein Diameter (%),[1]; 100 nmol,76.3 ± 10.2%
same,cytotoxicity to the embryo,[1],not cytotoxic
same,"inhibition of angiogenesis in the CAM assay, dose dependent (in words)",[1],inhibit angiogenesis
same,"effect of the lowest dose on vein length, artery length, total vessel length and vein diameter (in words)",[1],inhibited
CCC(C)CCCCCCCCCCCCC(=O)O (stereo not shown) [14-methyl hexadecanoic acid],HUVEC proliferation (in words),[2],inhibited
same,inhibition at 400 µM,"[2]; Homo sapiens, HUVEC",41%
same,"inhibition of HUVEC proliferation in vitro, dose dependent (in words)",[2],inhibit the proliferation
CCC(C)CCCCCCCCCCCCCC(=O)O (stereo not shown) [15-methyl heptadecanoic acid],HUVEC proliferation (in words),[2],inhibited
same,inhibition at 400 µM,"[2]; Homo sapiens, HUVEC",49%
same,"inhibition of HUVEC proliferation in vitro, dose dependent (in words)",[2],inhibit the proliferation
CC(C)CCCCCCCCCCCCCC(=O)O [15-methyl hexadecanoic acid],HUVEC proliferation (in words),[2],inhibited
same,inhibition at 400 µM,"[2]; Homo sapiens, HUVEC",63%
same,"inhibition of HUVEC proliferation in vitro, dose dependent (in words)",[2],inhibit the proliferation
CC(C)CCCCCCCCCCCCCCC(=O)O [16-methyl heptadecanoic acid],HUVEC proliferation (in words),[2],inhibited
same,inhibition at 400 µM,"[2]; Homo sapiens, HUVEC",19%
same,"inhibition of HUVEC proliferation in vitro, dose dependent (in words)",[2],inhibit the proliferation
"CC(C)CCCCCCCCCCCCCCCC(=O)O [17-MODA, 17-methyloctadecanoic Acid]",Vein length (%),[1]; [3],81.3 ± 16.8%
same,Artery length (%),[1]; 25 nmol,82.6 ± 18.0%
same,Total vessel length (%),[1]; 25 nmol,81.9 ± 16.9%
same,Vein Diameter (%),[1]; 25 nmol,71.6 ± 13.4%
same,Vein length (%),[1]; [4],112.8 ± 9.4%
same,Artery length (%),[1]; 50 nmol,97.0 ± 11.7%
same,Total vessel length (%),[1]; 50 nmol,104.2 ± 10.4%
same,Vein Diameter (%),[1]; 50 nmol,81.3 ± 8.4%
same,number of branching capillaries sprouting from the main vessels,[1]; 100 nmol,reduction
same,vessel area,[1]; 100 nmol,diminished
same,Vein length (%),[1]; [5],94.3 ± 18.9%
same,Artery length (%),[1]; 100 nmol,97.2 ± 17.4%
same,Total vessel length (%),[1]; 100 nmol,95.9 ± 18.1%
same,Vein Diameter (%),[1]; 100 nmol,70.0 ± 15.0%
same,cytotoxicity to the embryo,[1],not cytotoxic
same,"inhibition of angiogenesis in the CAM assay, dose dependent (in words)",[1],inhibit angiogenesis
same,"effect of the lowest dose on vein length, artery length, total vessel length and vein diameter (in words)",[1],inhibited
"CO[C@H]1C[C@@H]2CC[C@@H](C)[C@@](O)(O2)C(=O)C(=O)N2CCCC[C@H]2C(=O)O[C@H]([C@H](C)C[C@@H]2CC[C@@H](O)[C@H](OC)C2)CC(=O)[C@H](C)/C=C(\C)[C@@H](O)[C@@H](OC)C(=O)[C@H](C)C[C@H](C)/C=C/C=C/C=C/1C [rapamycin, reference compound]",% Inhibition of HUVEC proliferation,"[2]; 0.1 nM rapamycin, 24 hours (Table 2)",72.8%
same,inhibition at 0.0001 µM,"[2]; Homo sapiens, HUVEC, 24 h, 0.1 nM rapamycin, 24 hours (Table 2)",73%
same,inhibition at 0.001 µM,"[2]; Homo sapiens, HUVEC, 24 h, 1 nM rapamycin, 24 hours (Table 2)",~80%
